# Read-outs that look alike come from different tables or passages of the source.
# How the values were obtained:
# [1] = target: T1, rat μ opioid receptors (rMOR) (Rattus norvegicus, UniProt P33535); assay: biochemical; assay type: biochemical
# T1 construct: expressed in transfected cells; host or cells: HN9.10 neuroblastoma cell line, pCDNA3, neomycin-selected clones
# [2] = tested on: μ opioid receptors (GPI); assay: Guinea pig isolated ileum (GPI) assay, opioid agonist;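 also: inhibition of electrically evoked contractions (0.1 Hz, 0.4 msec, supramaximal voltage) in organ baths at 37 °C, contraction height 3 min after each cumulative dose versus the 1 min before dosing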
# Method: Guinea Pig Isolated Ileum Assay. […] These tissues were tied to gold chains with suture silk and mounted between platinum wire electrodes in 20 mL organ baths at a tension of 1 g and bathed in oxygenated (95:5 O2:CO2) Kreb's bicarbonate buffer at 37° C. and stimulated electrically (0.1 Hz, 0.4 msec duration) at supramaximal voltage. Following an equilibration period, compounds were added cumulatively to the bath in volumes of 14-60 μL until maximum inhibition was reached. A baseline PL-017 was constructed to determine tissue integrity and allow calculation of antagonist activity before opioid analog testing began.
# For opioid data analysis, percentage inhibition was calculated using the average tissue contraction height for 1 min preceding the addition of the agonist divided by the contraction height 3 min after exposure to the dose of agonist. […] IC50 and Emax estimates were determined by computerized nonlinear least-squares analysis (the pharmacological statistics package FlashCalc: Dr. Michael Ossipov, University of Arizona, Tucson, Ariz.). […] A50 values represent the mean of not less than 4 tissues. A50 and Emax estimates were determined by computerized nonlinear least-squares analysis (FlashCalc).
# [3] = target: T2, Substance P receptors (guinea pig NK1) (Cavia porcellus, UniProt P30547); assay: Guinea pig isolated ileum (GPI) assay with substance P stimulation in presence of 1 μM naloxone
# T2 construct: from tissue; host or cells: guinea pig (Hartley) ileum LMMP, 1 μM naloxone present
# [4] = target: T3, rat NK1 (rNK1) receptor (Rattus norvegicus, UniProt P14600); assay: Radioligand competition binding, [3H]substance P, rNK1/CHO membranes; conditions: for IC50: membranes from transfected CHO cells; for Ki: read-out: Affinity rNK1 (Ki; nM)
# T3 construct: expressed in transfected cells; host or cells: CHO (rNK-1/CHO cell line from Dr. James Krause)
# [5] = target: T4, δ opioid receptors (MVD) (Mus musculus, UniProt P32300); assay: Mouse isolated vas deferens (MVD) assay, opioid agonist
# T4 construct: from tissue; host or cells: mouse (ICR) isolated vas deferens
# [6] = target: T5, human NK1 receptor (hNK1) (Homo sapiens, UniProt P25103); assay: Radioligand competition binding, [3H]-Substance P, hNK1; conditions: for species difference between affinities at rNK1 and hNK1: Ki rNK1 vs Ki hNK1
# T5 construct: expressed in transfected cells
# [7] = target: T6, human δ opioid receptors (hDOR) (Homo sapiens, UniProt P41143); assay: [35S]GTP-γ-S binding assay, hDOR; assay type: biochemical
# T6 construct: expressed in transfected cells; host or cells: HN9.10 neuroblastoma cell line, pCDNA3, neomycin-selected clones
# [8] = target: T6, human δ opioid receptors (hDOR); assay: Radioligand competition binding, [3H]DPDPE, hDOR membranes
# [9] = target: T1, rat μ opioid receptors (rMOR); assay: Radioligand competition binding, [3H]DAMGO, rMOR membranes
# [10] = Brain distribution, in situ perfusion model; assay type: in vivo; conditions: FIG. 20
# [11] = Octanol/saline distribution (logD7.4); assay type: physicochemical
# Method: HEPES buffer (0.05 M HEPES buffer in 0.1 M NaCl, pH 7.4, 500 μL) was added to 2 mg of compound and mixed with 500 μL of 1-octanol. The sample was shaken at r.t. for 12 h to allow equilibrating. The sample was centrifuged at 6500 rpm in a VanGuard V6500 (GlaxoSmithKline, Research Triangle Park, N.C.) for 15 min. The layers were separated and each layer was centrifuged once again. The compound concentrations of obtained layers were analyzed by HPLC (30-70% of acetonitrile containing 0.1% TFA within 20 min and up to 95% within additional 5 min, 1 mL/min, 230 nm, Vydac 218TP104 C-18 column). The logarithm of 1-octanol/saline distribution (logD7.4) was calculated as the ratio of compound concentration in the 1-octanol and saline phases.
# Octanol/saline distribution (logD7.4) (Yamamoto, 2007, J. Med. Chem., submitted). HEPES buffer (0.05 M HEPES buffer in 0.1 M NaCl, pH 7.4, 500 μL) was added to 2 mg of compound and mixed with 500 μL of 1-octanol. The sample was shaken at r.t. for 12 h to allow equilibrating. The sample was centrifuged at 6500 rpm in a VanGuard V6500 (GlaxoSmithKline, Research Triangle Park, N.C.) for 15 min. The layers were separated and each layer was centrifuged once again. The compound concentrations in the obtained layers were analyzed by HPLC (30-70% of acetonitrile containing 0.1% TFA within 20 min and up to 95% within additional 5 min, 1 mL/min, 230 nm, Vydac 218TP104 C-18 column). The logarithm of 1-octanol/saline distribution (logD7.4) was calculated as the ratio of compound concentration in the 1-octanol and saline phases.
# [12] = Solubility in HEPES buffer; assay type: physicochemical
# Method: Solubility. HEPES buffer (0.05 M HEPES buffer in 0.1 M NaCl, pH 7.4, 500 μL) was added to 1 mg of compound. The sample was vortexed for 30 sec, sonicated for 5 min, shaken at r.t. for 2 h, and then allowed to be stayed overnight to equilibration. The sample was filtrated with an Acrodisc Syringe Filter (13 mm, 0.45 μm pore, PTFE membrane, Pall Life Sciences, East Hills, N.Y.).
# [13] = FIG. 47
# Method: Table printed on a drawing sheet, FIG. 47
# The patent's description of the figure: FIG. 47. Concentration of cyclic compounds in rat plasma after incubation at 37° C.
# [14] = target: rNK1 (Rattus norvegicus, UniProt P14600); conditions: previous studies; read-out: Affinity (Ki in nM), rNK1; cited from earlier work
# [15] = target: MOR (Homo sapiens, UniProt P35372); conditions: previous studies; read-out: Affinity (Ki in nM), MOR; cited from earlier work
# [16] = target: DOR (Homo sapiens, UniProt P41143); conditions: previous studies; read-out: Affinity (Ki in nM), DOR; cited from earlier work
# [17] = Table 39, read-out: GPI/LMMP opioid(mu) agonist (IC50; nM)
# [18] = electrically stimulated isolated tissue, read-out: GPI (μ), IC50
# [19] = Table 39, read-out: GTP binding hDOR Emax
# [20] = membranes from transfected HN9.10 cells
# [21] = 0.05 N HEPES buffer in 0.1 N NaCl
# [22] = Table 30, read-out: GPI/LMMP Opioid(m) Agonist (IC50; nM)
# [23] = Substance P antagonist, GPI, Ke (nM), Table 16, in the presence of 1 μM naloxone
# T2 sequence (P30547 whole entry): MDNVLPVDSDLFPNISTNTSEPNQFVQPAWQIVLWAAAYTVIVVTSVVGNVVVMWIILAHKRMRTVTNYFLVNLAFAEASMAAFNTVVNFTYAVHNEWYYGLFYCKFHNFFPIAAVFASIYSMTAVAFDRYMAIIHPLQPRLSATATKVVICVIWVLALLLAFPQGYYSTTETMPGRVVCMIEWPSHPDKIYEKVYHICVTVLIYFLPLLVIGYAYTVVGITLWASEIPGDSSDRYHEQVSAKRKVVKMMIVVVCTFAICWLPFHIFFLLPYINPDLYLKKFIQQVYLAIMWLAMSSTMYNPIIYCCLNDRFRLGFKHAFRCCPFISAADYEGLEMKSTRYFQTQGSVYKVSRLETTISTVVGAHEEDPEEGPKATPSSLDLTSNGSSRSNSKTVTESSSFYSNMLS
# T4 sequence (P32300 whole entry): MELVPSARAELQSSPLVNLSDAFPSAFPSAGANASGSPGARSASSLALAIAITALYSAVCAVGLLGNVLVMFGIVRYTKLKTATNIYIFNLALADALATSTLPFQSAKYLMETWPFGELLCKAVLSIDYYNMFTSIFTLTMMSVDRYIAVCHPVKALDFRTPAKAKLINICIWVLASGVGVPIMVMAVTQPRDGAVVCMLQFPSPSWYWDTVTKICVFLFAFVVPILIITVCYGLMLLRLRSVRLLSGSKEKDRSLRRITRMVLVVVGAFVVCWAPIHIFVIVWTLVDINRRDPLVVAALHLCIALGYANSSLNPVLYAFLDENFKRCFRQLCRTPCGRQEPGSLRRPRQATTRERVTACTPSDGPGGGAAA
# T1 sequence (P33535 whole entry): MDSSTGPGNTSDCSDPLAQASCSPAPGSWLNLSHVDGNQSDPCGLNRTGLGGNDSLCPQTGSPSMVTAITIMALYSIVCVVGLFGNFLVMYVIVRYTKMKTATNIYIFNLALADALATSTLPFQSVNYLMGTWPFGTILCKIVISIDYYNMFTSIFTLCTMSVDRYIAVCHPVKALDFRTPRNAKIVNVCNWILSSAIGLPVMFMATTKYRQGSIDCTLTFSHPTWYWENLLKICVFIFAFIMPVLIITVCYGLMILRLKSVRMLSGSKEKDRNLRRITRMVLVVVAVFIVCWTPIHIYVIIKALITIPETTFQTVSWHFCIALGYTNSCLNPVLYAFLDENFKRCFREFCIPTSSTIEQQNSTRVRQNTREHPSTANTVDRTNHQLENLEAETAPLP
# T5 sequence (P25103 whole entry): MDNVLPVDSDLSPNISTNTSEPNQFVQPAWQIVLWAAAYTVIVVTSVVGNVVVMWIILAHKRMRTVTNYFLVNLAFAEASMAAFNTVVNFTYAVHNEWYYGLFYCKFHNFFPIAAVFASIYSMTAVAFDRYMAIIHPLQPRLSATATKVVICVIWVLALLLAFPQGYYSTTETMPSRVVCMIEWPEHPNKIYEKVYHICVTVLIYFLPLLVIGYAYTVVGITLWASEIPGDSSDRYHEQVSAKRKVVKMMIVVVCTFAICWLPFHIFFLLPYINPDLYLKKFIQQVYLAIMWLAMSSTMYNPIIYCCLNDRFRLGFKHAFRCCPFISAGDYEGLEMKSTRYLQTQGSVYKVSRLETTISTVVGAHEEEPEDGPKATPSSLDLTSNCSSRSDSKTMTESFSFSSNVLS
# T3 sequence (P14600 whole entry): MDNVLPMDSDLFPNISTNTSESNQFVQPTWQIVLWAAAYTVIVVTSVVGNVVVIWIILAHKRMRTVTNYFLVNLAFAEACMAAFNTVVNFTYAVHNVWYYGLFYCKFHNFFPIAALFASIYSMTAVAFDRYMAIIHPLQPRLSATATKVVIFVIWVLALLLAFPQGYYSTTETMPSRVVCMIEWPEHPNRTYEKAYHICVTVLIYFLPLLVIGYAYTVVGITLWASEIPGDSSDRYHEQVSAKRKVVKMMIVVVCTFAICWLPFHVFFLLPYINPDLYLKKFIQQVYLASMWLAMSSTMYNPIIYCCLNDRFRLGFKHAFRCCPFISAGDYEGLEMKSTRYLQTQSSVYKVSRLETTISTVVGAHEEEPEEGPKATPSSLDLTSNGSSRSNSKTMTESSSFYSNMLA
# Sequence of rNK1 (P14600 whole entry): as above
# T6 sequence (P41143 whole entry): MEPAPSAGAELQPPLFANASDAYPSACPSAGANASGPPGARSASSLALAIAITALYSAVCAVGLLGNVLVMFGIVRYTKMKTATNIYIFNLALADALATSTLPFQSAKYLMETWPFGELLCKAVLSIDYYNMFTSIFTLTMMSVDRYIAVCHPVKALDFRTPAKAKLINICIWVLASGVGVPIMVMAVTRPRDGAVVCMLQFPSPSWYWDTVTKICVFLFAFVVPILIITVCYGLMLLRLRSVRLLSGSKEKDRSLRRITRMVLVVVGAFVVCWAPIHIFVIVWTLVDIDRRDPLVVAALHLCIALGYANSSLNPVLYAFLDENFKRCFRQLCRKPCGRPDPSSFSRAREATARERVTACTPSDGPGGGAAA
# Sequence of MOR (P35372 whole entry): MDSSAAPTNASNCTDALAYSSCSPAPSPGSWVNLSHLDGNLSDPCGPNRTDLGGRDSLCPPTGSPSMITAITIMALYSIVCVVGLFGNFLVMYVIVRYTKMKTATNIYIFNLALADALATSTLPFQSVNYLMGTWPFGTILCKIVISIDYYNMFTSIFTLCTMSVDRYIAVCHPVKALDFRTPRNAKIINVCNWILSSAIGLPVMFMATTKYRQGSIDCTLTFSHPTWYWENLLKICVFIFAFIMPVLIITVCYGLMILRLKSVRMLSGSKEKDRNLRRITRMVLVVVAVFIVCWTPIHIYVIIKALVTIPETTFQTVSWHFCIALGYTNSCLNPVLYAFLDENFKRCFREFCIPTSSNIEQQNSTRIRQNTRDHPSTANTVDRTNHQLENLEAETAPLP
# Sequence of DOR (P41143 whole entry): as the sequence (P41143 whole entry) above
compound,measurement,setting,value
"CC(C)C[C@H](NC(=O)[C@@H]1CCCN1C(=O)[C@H](CC(C)C)NC(=O)[C@H](Cc1ccccc1)NC(=O)CNC(=O)[C@@H](C)NC(=O)[C@@H](N)Cc1ccc(O)cc1)C(=O)N[C@@H](Cc1c[nH]c2ccccc12)C(=O)OCc1cc(C(F)(F)F)cc(C(F)(F)F)c1 [TY004, H-Tyr-D-Ala-Gly-Phe-Leu-Pro-Leu-Trp-O-3,5-Bzl(CF3)2]","LogEC50, rMOR, [35S]GTP-γ-S binding",[1],−7.48 ± 0.16
same,EC50,[1]; GTP binding rMOR EC50,39.8 nM
same,EC50,"[1]; read-out: EC50, rMOR, [35S]GTP-γ-S binding",33 nM
same,Emax,"[1]; read-out: Emax, rMOR, [35S]GTP-γ-S binding",46%
same,Emax,[1]; read-out: GTP binding rMOR Emax,44.5%
same,Emax,[1]; read-out: GTP binding rMOR Emax (%),44.5%
same,IC50,"[2]; Table 28, read-out: GPI/LMMP Opioid(m) Agonist (IC50; nM)",341 nM
same,IC50,[2]; [17],341 nM
same,IC50,[2]; [18],341 ± 71 nM
same,IC50,[3],19.4 nM
same,Kb,"[3]; Substance P antagonist, GPI, Ke, in the presence of 1 μM naloxone",19.4 ± 5 nM
same,GPI/LMMP SP Agonist (IC50; nM),"[3]; Table 39, concentration not given",none
same,activation at 1 µM,"[3]; read-out: Substance P GPI agonist (A50), at 1 μM, contraction relative to initial muscle contraction with KCl",0%
same,IC50,"[4]; IC50, rNK1, Substance P radioligand",20.9 nM
same,IC50,"[4]; LogIC50, rNK1, Substance P radioligand",20 nM
same,IC50,[5],101 nM
same,δ selectivity in MVD and GPI assays,[5],3.4 fold
same,IC50(MVD)/IC50(GPI),[5]; Table 4,3.4
same,IC50,"[5]; electrically stimulated isolated tissue, read-out: MVD (δ), IC50",101 ± 25 nM
same,Ki,[6],0.016 nM
same,Ki(μ)/Ki(δ),[7],3.4
same,"LogEC50, hDOR, [35S]GTP-γ-S binding",[7],−8.09 ± 0.18
same,δ selectivity in [35S]GTP-γ-S binding assays,[7],3.4 fold
same,EC50,"[7]; Table 27, read-out: GTP binding hDOR EC50",9.6 nM
same,Emax,"[7]; Table 27, read-out: GTP binding hDOR Emax (%)",42.5%
same,EC50,"[7]; Table 39, read-out: GTP binding hDOR EC50",9.6 nM
same,Emax,[7]; [19],42.5%
same,Emax,"[7]; net total bound/basal binding × 100, read-out: Emax, hDOR, [35S]GTP-γ-S binding",44%
same,EC50,"[7]; read-out: EC50, hDOR, [35S]GTP-γ-S binding",9.6 nM
same,Ki,[8],23.3 nM
same,δ selectivity over μ in binding assays,[8]; Ki(μ)/Ki(δ),4.7 fold
same,Ki,"[8]; Table 27, read-out: Affinity hDOR (Ki; nM)",5 nM
same,Ki,"[8]; Table 39, read-out: Affinity hDOR (Ki; nM)",5 nM
same,Ki(μ)/Ki(δ),"[8]; binding, rMOR vs hDOR",4.7
same,"LogIC50, hDOR, [3H]DPDPE",[8]; [20],−7.97 ± 0.07
same,Ki,"[8]; read-out: Ki, hDOR, [3H]DPDPE",5 nM
same,Ki,[9],23.3 nM
same,"LogIC50, rMOR, [3H]DAMGO",[9]; [20],−7.30 ± 0.07
same,blood brain barrier penetration,[10],penetrate blood brain barrier
"CSCC[C@H](NC(=O)[C@H](Cc1ccccc1)NC(=O)CNC(=O)[C@@H](C)NC(=O)[C@@H](N)Cc1ccc(O)cc1)C(=O)N1CCC[C@H]1C(=O)N[C@@H](CC(C)C)C(=O)N[C@@H](Cc1c[nH]c2ccccc12)C(=O)NCc1ccccc1 [TY025, H-Tyr-D-Ala-Gly-Phe-Met-Pro-Leu-Trp-NH-Bzl]",logD7.4,[11]; [21],3.6
same,IC50,[2]; [22],61.1 nM
same,IC50,[2]; [17],61.1 nM
same,IC50,[2]; [18],61 nM
same,Kb,[3]; [23],9.9 ± 2.8 nM
same,Ki,[4]; Table 39,696 nM
same,species difference between affinities at rNK1 and hNK1,[6],220 fold
same,"LogEC50, hDOR","[7]; Table 14, logarithm of EC50 (negative), HN9.10 cell",−8.6 ± 0.13
same,blood brain barrier penetration,[10],penetrate blood brain barrier
"CSCC[C@H](NC(=O)[C@H](Cc1ccccc1)NC(=O)CNC(=O)[C@@H](C)NC(=O)[C@@H](N)Cc1ccc(O)cc1)C(=O)N1CCC[C@H]1C(=O)N[C@@H](CC(C)C)C(=O)N[C@@H](Cc1c[nH]c2ccccc12)C(=O)NCc1cc(C(F)(F)F)cc(C(F)(F)F)c1 [TY027, H-Tyr-D-Ala-Gly-Phe-Met-Pro-Leu-Trp-NH-3,5-Bzl(CF3)2]",logD7.4,[11]; [21],>4.0
same,IC50,"[2]; Table 16, electrically stimulated isolated tissue, read-out: Opioid agonist GPI (μ), IC50",490 ± 29 nM
same,IC50,"[2]; Table 22, electrically stimulated isolated tissue, read-out: Opioid agonist GPI (μ), IC50",490 ± 29 nM
same,IC50,[2]; [22],488 nM
same,IC50,[2]; [17],488 nM
same,IC50,[2]; [18],490 nM
same,Kb,[3]; [23],10 ± 2.1 nM
same,Ki,[4]; Table 29,7.27 nM
same,IC50,[5],14.5 nM
same,species difference between affinities at rNK1 and hNK1,[6],1100 fold
same,solubility,"[12]; pH 7.4, 0.05 N HEPES buffer in 0.1 N NaCl solution",< 0.2 µg/mL
CCCC[C@H](NC(=O)[C@H](Cc1ccccc1)NC(=O)CNC(=O)[C@@H](C)NC(=O)[C@@H](N)Cc1ccc(O)cc1)C(=O)N1CCC[C@H]1C(=O)N[C@@H](CC(C)C)C(=O)N[C@@H](Cc1c[nH]c2ccccc12)C(=O)NCc1cc(C(F)(F)F)cc(C(F)(F)F)c1 [TY045],logD7.4,"[11]; Table 26, pH 7.4",>3.0
same,IC50,"[2]; Table 24, read-out: GPI/LMMP Opioid (μ) Agonist (IC50; nM)",463 nM
same,IC50,[2]; [17],463 nM
same,Kb,"[3]; GPI/LMMP SP Antagonist (Ke; nM), Table 24",40.8 nM
same,IC50,[5],13.6 nM
same,Emax,"[7]; Table 24, read-out: GTP binding hDOR Emax (%)",125%
same,Emax,[7]; [19],125%
same,solubility,"[12]; Table 26, HEPES buffer pH 7.4",< 1 µg/mL
CC(C)C[C@H](NC(=O)[C@@H]1CCCN1C(=O)[C@H]1NC(=O)[C@H](Cc2ccccc2)NC(=O)CNC(=O)[C@H](NC(=O)[C@@H](N)Cc2ccc(O)cc2)C(C)(C)SSC1(C)C)C(=O)N[C@@H](Cc1c[nH]c2ccccc12)C(=O)NCc1cc(C(F)(F)F)cc(C(F)(F)F)c1 [TY046],T1/2,[13],8.0 h
same,Ki,[6],0.0053 nM
same,Emax,[7]; read-out: GTP binding hDOR Emax,15%
same,Emax,[7]; read-out: GTP binding hDOR Emax (%),15%
same,Ki,[9],2330 nM
HTyrDAlaDPhePheDTrpLeuMetNH2 [JSOH9],Ki,[14],2940 nM
same,Ki,[15],606 nM
same,Ki,[16],0.72 nM
HTyrDAlaDTrpPheDTrpLeuLeuNH2 [JSOH11],Ki,[14],7320 nM
same,Ki,[15],164 nM
same,Ki,[16],16.5 nM
HTyrDAlaGlyPheNHNHTrpCbz [AA501],Ki,[14],5000 nM
same,Ki,[15],80 nM
HTyrProPhePheGlyLeuMetNH2 (H-YPFFGLM-NH2) [ESP7],Ki,[14],289 nM
same,Ki,[15],218 nM
HTyrProPhePheProLeuMetNH2 (H-YPFFPLM-NH2) [ESP6],Ki,[14],305 nM
same,Ki,[15],92 nM

# Source: patent US8026218B2, “Bifunctional analgesic compounds for opioid receptor agonists and neurokinin-1 receptor antagonists” (The University of Arizona, priority 2006, dated 2011)
